Experiments:
cells = settings: Homo sapiens, MCF-10A, read-out: MCF10A I50
H1047R PIK3CA enzyme = H1047R PIK3CA enzyme (Homo sapiens, UniProt P42336, H1047R); assay: ADP-Glo Biochemical PIK3CA Kinase Assay
Chain of H1047R PIK3CA enzyme (P42336 whole entry H1047R): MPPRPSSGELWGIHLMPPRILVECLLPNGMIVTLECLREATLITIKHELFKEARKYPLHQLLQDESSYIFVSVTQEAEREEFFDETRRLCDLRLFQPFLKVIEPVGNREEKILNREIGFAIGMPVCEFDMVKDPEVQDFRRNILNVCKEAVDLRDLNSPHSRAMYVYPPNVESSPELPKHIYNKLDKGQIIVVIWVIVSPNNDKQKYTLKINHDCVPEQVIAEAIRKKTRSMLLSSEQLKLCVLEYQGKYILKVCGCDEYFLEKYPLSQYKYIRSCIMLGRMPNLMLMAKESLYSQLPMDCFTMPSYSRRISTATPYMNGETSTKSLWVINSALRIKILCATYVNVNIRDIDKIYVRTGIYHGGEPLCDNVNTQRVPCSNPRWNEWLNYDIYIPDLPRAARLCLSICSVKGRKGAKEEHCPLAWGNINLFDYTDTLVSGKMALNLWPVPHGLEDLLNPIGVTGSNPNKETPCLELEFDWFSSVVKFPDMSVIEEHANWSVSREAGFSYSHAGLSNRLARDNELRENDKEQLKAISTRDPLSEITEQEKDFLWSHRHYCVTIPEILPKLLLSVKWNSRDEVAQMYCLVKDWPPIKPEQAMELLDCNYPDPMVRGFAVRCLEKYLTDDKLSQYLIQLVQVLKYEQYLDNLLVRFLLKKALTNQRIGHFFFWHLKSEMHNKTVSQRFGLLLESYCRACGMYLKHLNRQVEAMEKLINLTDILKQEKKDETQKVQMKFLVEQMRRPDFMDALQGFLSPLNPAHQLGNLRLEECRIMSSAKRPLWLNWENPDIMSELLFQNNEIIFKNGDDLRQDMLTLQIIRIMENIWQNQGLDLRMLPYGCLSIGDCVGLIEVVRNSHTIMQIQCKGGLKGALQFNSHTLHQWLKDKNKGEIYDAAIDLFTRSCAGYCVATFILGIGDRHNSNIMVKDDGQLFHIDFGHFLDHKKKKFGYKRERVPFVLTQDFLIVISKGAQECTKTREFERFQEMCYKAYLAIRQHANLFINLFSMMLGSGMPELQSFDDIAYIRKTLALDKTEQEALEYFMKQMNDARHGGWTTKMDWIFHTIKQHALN
Chain of H1047R PIK3CA enzyme (P27986 whole entry partner): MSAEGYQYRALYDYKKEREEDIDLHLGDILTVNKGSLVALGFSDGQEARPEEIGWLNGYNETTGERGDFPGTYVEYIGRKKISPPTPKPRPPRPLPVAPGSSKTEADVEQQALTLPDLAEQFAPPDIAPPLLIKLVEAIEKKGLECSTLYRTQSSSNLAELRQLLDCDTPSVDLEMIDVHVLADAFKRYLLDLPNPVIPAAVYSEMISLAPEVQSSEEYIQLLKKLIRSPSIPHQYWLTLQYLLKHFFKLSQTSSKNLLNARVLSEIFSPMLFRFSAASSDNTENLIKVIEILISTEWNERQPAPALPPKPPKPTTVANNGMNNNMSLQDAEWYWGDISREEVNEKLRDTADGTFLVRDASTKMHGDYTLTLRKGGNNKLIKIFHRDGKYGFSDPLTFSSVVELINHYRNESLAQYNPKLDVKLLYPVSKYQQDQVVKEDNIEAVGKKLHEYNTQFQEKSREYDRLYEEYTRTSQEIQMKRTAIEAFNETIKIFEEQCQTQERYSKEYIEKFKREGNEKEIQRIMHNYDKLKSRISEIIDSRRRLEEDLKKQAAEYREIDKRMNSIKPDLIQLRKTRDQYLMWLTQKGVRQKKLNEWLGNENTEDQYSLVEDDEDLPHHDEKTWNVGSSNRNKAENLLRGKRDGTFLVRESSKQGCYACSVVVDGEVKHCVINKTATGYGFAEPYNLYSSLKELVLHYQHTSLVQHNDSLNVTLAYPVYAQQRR

SMILES	IC50 (cells)	IC50 (H1047R PIK3CA enzyme)
C[C@H](NC(=O)c1cnc(N2CCOc3ccccc32)c(NC(=O)c2csc3ccccc23)c1)c1cccnc1 (stereo in doubt) [I-258]	10000 to 36000 nM	100 to 500 nM
C[C@@H](NC(=O)c1cnc(N2CCOc3ccccc32)c(NC(=O)c2csc3ccccc23)c1)c1ccncc1 (stereo in doubt) [I-314]	5000 to 10000 nM	100 to 500 nM
C[C@H](NC(=O)c1cnc(N2CCOc3ccccc32)c(NC(=O)c2csc3ccccc23)c1)c1ccncc1 (stereo in doubt) [I-315]	10000 to 36000 nM	500 to 1000 nM
CNC(=O)c1cnc(Nc2ccccc2C)c(NC(=O)c2cc(F)cc(C(F)(F)F)c2)c1 [I-1]	5000 to 10000 nM	500 to 1000 nM
CNC(=O)c1cnc(Nc2ccccc2C)c(NC(=O)c2cc(Cl)cc(Cl)c2)c1 [I-6]	5000 to 10000 nM	500 to 1000 nM
Cc1ccccc1Nc1ncc(-c2cncnc2)cc1NC(=O)c1cc(F)cc(C(F)(F)F)c1 [I-7]	5000 to 10000 nM	100 to 500 nM
CNC(=O)c1cnc(Nc2ccccc2C)c(NS(=O)(=O)c2ccc(F)cc2C)c1 [I-8]	1000 to 5000 nM	100 to 500 nM
Cc1ccccc1Nc1ncccc1NC(=O)c1cc(F)cc(C(F)(F)F)c1 [I-11]	10000 to 36000 nM	1000 to 10000 nM
Cc1ccccc1Nc1ncc(C2CC2)cc1NC(=O)c1cc(F)cc(C(F)(F)F)c1 [I-21]	10000 to 36000 nM	1000 to 10000 nM
CNC(=O)c1cnc(Nc2ccccc2C)c(NC(=O)C(O)c2cccc(F)c2)c1 (stereo not drawn) [I-27]	1000 to 5000 nM	500 to 1000 nM
Cc1ccccc1Nc1ncc(C(N)=O)cc1NC(=O)c1cc(F)cc(C(F)(F)F)c1 [I-28]	5000 to 10000 nM	500 to 1000 nM
CNC(=O)c1cnc(Nc2ccccc2C)c(NC(=O)Cc2ccc(O)c(O)c2)c1 [I-30]	5000 to 10000 nM	500 to 1000 nM
CNC(=O)c1cnc(Nc2ccc(C)cc2)c(NC(=O)c2cc(F)cc(C(F)(F)F)c2)c1 [I-36]	10000 to 36000 nM	500 to 1000 nM
CNC(=O)c1cnc(Nc2ccccc2C)c(NC(=O)c2csc3ccccc23)c1 [I-41]	10000 to 36000 nM	100 to 500 nM
Cc1ccccc1Nc1ncc(C(C)(C)O)cc1NC(=O)c1cc(F)cc(C(F)(F)F)c1 [I-42]	10000 to 36000 nM	1000 to 10000 nM
Cc1ccccc1Nc1ncc(-c2cccc(S(N)(=O)=O)c2)cc1NC(=O)c1cc(F)cc(C(F)(F)F)c1 [I-45]	1000 to 5000 nM	100 to 500 nM
Cc1ccccc1Nc1ncc(-c2ccc(C#N)cc2)cc1NC(=O)c1cc(F)cc(C(F)(F)F)c1 [I-46]	1000 to 5000 nM	100 to 500 nM
Cc1ccccc1Nc1ncc(C(=O)NC2CS(=O)(=O)C2)cc1NC(=O)c1cc(F)cc(C(F)(F)F)c1 [I-51]	< 1000 nM	≤ 100 nM
Cc1ccccc1Nc1ncc(C(=O)NCc2ccnn2C)cc1NC(=O)c1cc(F)cc(C(F)(F)F)c1 [I-52]	1000 to 5000 nM	100 to 500 nM

SMILES	IC50 (cells)	IC50 (H1047R PIK3CA enzyme)
Cc1ccccc1Nc1ncc(C(=O)NCc2cnn(C)c2)cc1NC(=O)c1cc(F)cc(C(F)(F)F)c1 [I-53]	5000 to 10000 nM	100 to 500 nM
Cc1ccccc1Nc1ncc(NC(=O)OC(C)(C)C)cc1NC(=O)c1cc(F)cc(C(F)(F)F)c1 [I-54]	10000 to 36000 nM	1000 to 10000 nM
COc1ncc(-c2cnc(Nc3ccccc3C)c(NC(=O)c3cc(F)cc(C(F)(F)F)c3)c2)cn1 [I-57]	1000 to 5000 nM	500 to 1000 nM
Cc1ccccc1Nc1ncc(Br)cc1NC(=O)c1cc(F)cc(C(F)(F)F)c1 [I-60]	1000 to 5000 nM	1000 to 10000 nM
Cc1ccccc1Nc1ncc(C(=O)NCc2nccs2)cc1NC(=O)c1cc(F)cc(C(F)(F)F)c1 [I-65]	1000 to 5000 nM	100 to 500 nM
Cc1ccccc1Nc1ncc(-c2cncc(C#N)c2)cc1NC(=O)c1cc(F)cc(C(F)(F)F)c1 [I-75]	1000 to 5000 nM	100 to 500 nM
Cc1ccccc1Nc1ncc(-c2ccc(C(N)=O)cc2)cc1NC(=O)c1cc(F)cc(C(F)(F)F)c1 [I-79]	5000 to 10000 nM	100 to 500 nM
Cc1ccccc1Nc1ncc(-c2ccc(O)cc2)cc1NC(=O)c1cc(F)cc(C(F)(F)F)c1 [I-82]	10000 to 36000 nM	500 to 1000 nM
CNC(=O)c1ccc(-c2cnc(Nc3ccccc3C)c(NC(=O)c3cc(F)cc(C(F)(F)F)c3)c2)cc1 [I-84]	5000 to 10000 nM	1000 to 10000 nM
Cc1ccccc1Nc1ncc(-c2cnn(C)c2)cc1NC(=O)c1csc2ccccc12 [I-93]	5000 to 10000 nM	100 to 500 nM
Cc1ccccc1Nc1ncc(C(=O)NCc2ccnn2C)cc1NC(=O)c1csc2ccccc12 [I-135]	1000 to 5000 nM	100 to 500 nM
Cc1ccccc1Nc1ncc(C(=O)NC2CS(=O)(=O)C2)cc1NC(=O)c1csc2ccccc12 [I-136]	1000 to 5000 nM	≤ 100 nM
Cc1ccccc1Nc1ncc(C(=O)NCC2CS(=O)(=O)C2)cc1NC(=O)c1csc2ccccc12 [I-137]	5000 to 10000 nM	100 to 500 nM
Cc1ccccc1Nc1ncc(C(=O)NCc2nccs2)cc1NC(=O)c1csc2ccccc12 [I-138]	5000 to 10000 nM	≤ 100 nM
CNC(=O)c1cnc(Nc2ccccc2C)c(NC(=O)c2nsc3ccccc23)c1 [I-139]	10000 to 36000 nM	500 to 1000 nM
Cc1ccccc1Nc1ncc(-c2cnn(C)c2)cc1NC(=O)c1csc2ccc(F)cc12 [I-146]	1000 to 5000 nM	100 to 500 nM
CNC(=O)c1cnc(Nc2ccccc2C)c(NC(=O)c2csc3ccc(Cl)cc23)c1 [I-149]	10000 to 36000 nM	100 to 500 nM
CNC(=O)c1cnc(Nc2ccccc2C)c(NC(=O)c2csc3ccc(F)cc23)c1 [I-150]	5000 to 10000 nM	100 to 500 nM
Cc1ccccc1Nc1ncc(C(=O)NCc2ccn(C)n2)cc1NC(=O)c1cc(F)cc(C(F)(F)F)c1 [I-178]	1000 to 5000 nM	100 to 500 nM

SMILES	IC50 (cells)	IC50 (H1047R PIK3CA enzyme)
O=C(NC1CS(=O)(=O)C1)c1cnc(N2CCCc3ccccc32)c(NC(=O)c2csc3ccccc23)c1 [I-180]	10000 to 36000 nM	100 to 500 nM
O=C(NCc1nccs1)c1cnc(N2CCCc3ccccc32)c(NC(=O)c2csc3ccccc23)c1 [I-181]	10000 to 36000 nM	100 to 500 nM
COCCNC(=O)c1cnc(Nc2ccccc2C)c(NC(=O)c2csc3ccccc23)c1 [I-190]	10000 to 36000 nM	100 to 500 nM
Cc1ccccc1Nc1ncc(C(=O)NCc2ccc(Cl)cc2)cc1NC(=O)c1csc2ccccc12 [I-191]	1000 to 5000 nM	100 to 500 nM
Cc1ccccc1Nc1ncc(C(=O)NC2COC2)cc1NC(=O)c1csc2ccccc12 [I-192]	36000 to 100000 nM	100 to 500 nM
Cc1ccccc1Nc1ncc(C(=O)NCc2cccnc2)cc1NC(=O)c1csc2ccccc12 [I-193]	5000 to 10000 nM	100 to 500 nM
Cc1ccccc1Nc1ncc(C(=O)NCC2CCCO2)cc1NC(=O)c1csc2ccccc12 (stereo not drawn) [I-195]	10000 to 36000 nM	100 to 500 nM
Cc1ccccc1Nc1ncc(C(=O)NCC(F)(F)F)cc1NC(=O)c1csc2ccccc12 [I-196]	5000 to 10000 nM	100 to 500 nM
Cc1ccccc1Nc1ncc(C(=O)NC(C)c2ccccc2)cc1NC(=O)c1csc2ccccc12 (stereo not drawn) [I-197]	10000 to 36000 nM	≤ 100 nM
Cc1ccccc1Nc1ncc(C(=O)NCC2CCOCC2)cc1NC(=O)c1csc2ccccc12 [I-198]	10000 to 36000 nM	100 to 500 nM
COc1cncc(CNC(=O)c2cnc(Nc3ccccc3C)c(NC(=O)c3csc4ccccc34)c2)c1 [I-199]	10000 to 36000 nM	100 to 500 nM
O=C(Nc1cc(C(=O)NC2CS(=O)(=O)C2)cnc1N1CCCc2ccccc21)c1cc(F)cc(C(F)(F)F)c1 [I-208]	5000 to 10000 nM	500 to 1000 nM
O=C(NCc1nccs1)c1cnc(N2CCCc3ccccc32)c(NC(=O)c2cc(F)cc(C(F)(F)F)c2)c1 [I-209]	10000 to 36000 nM	500 to 1000 nM
Cn1nccc1CNC(=O)c1cnc(N2CCCc3ccccc32)c(NC(=O)c2cc(F)cc(C(F)(F)F)c2)c1 [I-210]	36000 to 100000 nM	1000 to 10000 nM
Cc1ccccc1Nc1ncc(C(=O)NCC2CC(F)(F)C2)cc1NC(=O)c1cc(F)cc(C(F)(F)F)c1 [I-211]	1000 to 5000 nM	100 to 500 nM
Cc1ccccc1Nc1ncc(C(=O)NC2CC(F)(F)C2)cc1NC(=O)c1cc(F)cc(C(F)(F)F)c1 [I-212]	1000 to 5000 nM	100 to 500 nM
CNC(=O)c1cnc(N2C(=O)NCc3ccccc32)c(NC(=O)c2csc3ccccc23)c1 [I-215]	36000 to 100000 nM	1000 to 10000 nM
Cc1ccccc1Nc1ncc(C(=O)NCCS(C)(=O)=O)cc1NC(=O)c1cc(F)cc(C(F)(F)F)c1 [I-219]	1000 to 5000 nM	100 to 500 nM
Cc1cc(NC(=O)c2cnc(Nc3ccccc3C)c(NC(=O)c3cc(F)cc(C(F)(F)F)c3)c2)n[nH]1 [I-232]	1000 to 5000 nM	100 to 500 nM
